Test results taken from ChEMBL document CHEMBL6153060, “Structure-Based Design of Novel TLR7/8 Agonist Payloads Enabling an Immunomodulatory Conjugate Approach” (ACS Med Chem Lett, 2025).

What was measured:
[1] = Metabolic stability in mouse liver microsomes assessed as compound remaining; format: ADME, Microsome
[2] = Metabolic stability in human liver microsomes assessed as compound remaining after 30 mins; format: ADME, Microsome; conditions: read-out: Stability

In the case of `CCC[C@@H](CCO)Nc1nc(N)nc2c3ccccc3n(Cc3cc(CNC[C@@H]4CCOC4)ccc3OC)c12`, the Stability [1] is reported as 1% and the remaining at 0.5 h [2] is reported as 4%.
